# Experimental data reported in patent US20250221410A1, “SUBSTITUTED 2-C-AZINES AND SALTS THEREOF, AND USE THEREOF AS HERBICIDAL ACTIVE SUBSTANCES” (BAYER AKTIENGESELLSCHAFT, priority 2022, published 2025).
# Legend:
# Format in all cases: in vivo
# [1] = system: AMARE: Amaranthus retroflexus; assay: Post-emergence herbicidal efficacy at 80 g/ha, AMARE; settings: visual rating about 3 weeks after treatment vs untreated controls
# Description: Seeds of monocotyledonous and dicotyledonous weeds and crop plants were placed in sandy loam in plastic or organic planting pots, covered with soil and cultivated in a greenhouse under controlled growth conditions. 2 to 3 weeks after sowing, the test plants were treated at the one-leaf stage. The compounds of the invention, formulated in the form of wettable powders (WP) or as emulsion concentrates (EC), were then sprayed onto the green parts of the plants as aqueous suspension or emulsion with addition of 0.5% additive at a water application rate of 600 l/ha (converted). After the test plants had been kept in the greenhouse under optimum growth conditions for about 3 weeks, the activity of the preparations was rated visually in comparison to untreated controls. For example, 100% activity=the plants have died, 0% activity=like control plants. Tables B1 to B10 below show the effects of selected compounds of the general formula (I) according to Table 1 on various harmful plants and an application rate corresponding to 80 g/ha, which were obtained by the experimental procedure mentioned above.
# [2] = system: AMARE: Amaranthus retroflexus; assay: Pre-emergence herbicide efficacy at 80 g/ha, AMARE; settings: scored visually after about 3 weeks
# Source text: Seeds of monocotyledonous and dicotyledonous weed plants and crop plants were placed in plastic or organic planting pots and covered with soil. The compounds of the invention, formulated in the form of wettable powders (WP) or as emulsion concentrates (EC), were then applied to the surface of the covering soil as aqueous suspension or emulsion with addition of 0.5% additive at a water application rate equivalent to 600 l/ha. After the treatment, the pots were placed in a greenhouse and kept under good growth conditions for the test plants. After about 3 weeks, the efficacy of the preparations was scored visually in comparison with untreated controls as percentages. For example, 100% activity=the plants have died, 0% activity=like control plants. Tables D1 to D12 below show the effects of selected compounds of the general formula (I) according to Table 1 on various harmful plants and an application rate corresponding to 80 g/ha, which were obtained by the experimental procedure mentioned above.
# POAAN: Poa annua [3] = assay: Post-emergence herbicidal efficacy at 1280 g/ha, POAAN; settings: visual rating about 3 weeks after treatment vs untreated controls
# Description: (§1) Seeds of mono- and dicotyledonous weed plants were placed in plastic pots in sandy loam soil (doubly sown with in each case one species of mono- or dicotyledonous weed plants per pot), covered with soil and cultivated in a greenhouse under controlled growth conditions. 2 to 3 weeks after sowing, the test plants were treated at the one-leaf stage. The compounds of the invention, formulated in the form of wettable powders (WP) or as emulsion concentrates (EC), were applied to the green parts of the plants as aqueous suspension or emulsion with addition of 0.5% additive at a water application rate equivalent to 600 litres per hectare. After the test plants had been kept in the greenhouse under optimum growth conditions for about 3 weeks, the activity of the preparations was rated visually in comparison to untreated controls. For example, 100% activity=the plants have died, 0% activity=like control plants. Tables A1 to A12 below show the effects of selected compounds of the general formula (I) according to Table 1 on various harmful plants and at an application rate corresponding to 1280 g/ha, which were obtained by the trial procedure specified above.
# SETVI: Setaria viridis [4] = assay: Post-emergence herbicidal efficacy at 1280 g/ha, SETVI; settings: visual rating about 3 weeks after treatment vs untreated controls
# Description: as §1
# [5] = system: AMARE: Amaranthus retroflexus; assay: Pre-emergence herbicide efficacy at 1280 g/ha, AMARE; settings: visual scoring after about 3 weeks vs untreated controls
# Source text: (§2) Seeds of mono- and dicotyledonous weed plants were placed in plastic pots in sandy loam soil (doubly sown with one species each of mono- or dicotyledonous weed plants per pot) and covered with soil. The compounds of the invention, formulated in the form of wettable powders (WP) or as emulsion concentrates (EC), were then applied to the surface of the covering soil as aqueous suspension or emulsion with addition of 0.5% additive at a water application rate of 600 litres per hectare (converted). After the treatment, the pots were placed in a greenhouse and kept under good growth conditions for the test plants. After about 3 weeks, the efficacy of the preparations was scored visually in comparison with untreated controls as percentages. For example, 100% activity=the plants have died, 0% activity=like control plants. Tables C1 to C12 below show the effects of selected compounds of the general formula (I) according to Table 1 on various harmful plants and at an application rate corresponding to 1280 g/ha, which were obtained by the trial procedure specified above.
# POAAN: Poa annua [6] = assay: Pre-emergence herbicide efficacy at 1280 g/ha, POAAN; settings: visual scoring after about 3 weeks vs untreated controls
# Source text: as §2
# SETVI: Setaria viridis [7] = assay: Pre-emergence herbicide efficacy at 1280 g/ha, SETVI; settings: visual scoring vs untreated controls
# Source text: as §2
# [8] = system: AMARE: Amaranthus retroflexus; assay: Post-emergence herbicidal efficacy at 1280 g/ha, AMARE; settings: rated visually after about 3 weeks vs untreated controls, 100% = plants have died, 0% = like control plants
# Description: as §1
# KCHSC: Kochia scoparia [9] = assay: Pre-emergence herbicide efficacy at 1280 g/ha, KCHSC; settings: visual scoring after about 3 weeks vs untreated controls
# Source text: as §2
# [10] = system: DIGSA: Digitaria sanguinalis; assay: Pre-emergence herbicide efficacy at 1280 g/ha, DIGSA; settings: visual scoring after about 3 weeks vs untreated controls
# Source text: as §2
# [11] = system: ABUTH: Abutilon theophrasti; assay: Post-emergence herbicidal efficacy at 1280 g/ha, ABUTH; settings: rated visually after about 3 weeks vs untreated controls, 100% = plants have died, 0% = like control plants
# Description: as §1
# [12] = system: ECHCG: Echinochloa crus-galli; assay: Post-emergence herbicidal efficacy at 1280 g/ha, ECHCG; settings: rated visually after about 3 weeks vs untreated controls, 100% = plants have died, 0% = like control plants
# Description: as §1
# VERPE: Veronica persica [13] = assay: Post-emergence herbicidal efficacy at 1280 g/ha, VERPE; settings: visual rating about 3 weeks after treatment vs untreated controls
# Description: as §1
# VERPE: Veronica persica [14] = assay: Pre-emergence herbicide efficacy at 1280 g/ha, VERPE; settings: visual scoring vs untreated controls
# Source text: as §2
# KCHSC: Kochia scoparia [15] = assay: Post-emergence herbicidal efficacy at 1280 g/ha, KCHSC; settings: visual rating about 3 weeks after treatment vs untreated controls
# Description: as §1
# [16] = system: ABUTH: Abutilon theophrasti; assay: Pre-emergence herbicide efficacy at 1280 g/ha, ABUTH; settings: visual scoring after about 3 weeks vs untreated controls
# Source text: as §2
# STEME: Stellaria media [17] = assay: Pre-emergence herbicide efficacy at 1280 g/ha, STEME; settings: visual scoring vs untreated controls
# Source text: as §2
# STEME: Stellaria media [18] = assay: Post-emergence herbicidal efficacy at 1280 g/ha, STEME; settings: visual rating about 3 weeks after treatment vs untreated controls
# Description: as §1
# [19] = system: ECHCG: Echinochloa crus-galli; assay: Pre-emergence herbicide efficacy at 1280 g/ha, ECHCG; settings: visual scoring after about 3 weeks vs untreated controls
# Source text: as §2
Compound,Post-emergence efficacy against AMARE [1],Pre-emergence efficacy against AMARE in % [2],Post-emergence efficacy against POAAN (POAAN: Poa annua [3]),Pre-emergence efficacy against AMARE [5],Pre-emergence efficacy against POAAN (POAAN: Poa annua [6]),Post-emergence efficacy at 1280 g/ha against AMARE in % [8],Pre-emergence efficacy against DIGSA [10],Post-emergence efficacy at 1280 g/ha against ABUTH in % [11],Post-emergence efficacy against VERPE (VERPE: Veronica persica [13]),Post-emergence efficacy against KCHSC (KCHSC: Kochia scoparia [15]),Post-emergence efficacy against STEME (STEME: Stellaria media [18]),further results
O=S(=O)(CCCC(F)(F)F)Oc1c(F)cccc1Cc1ncc(F)cn1 [Example 1-15],90%,–,–,–,–,–,–,–,–,–,–,–
O=S(=O)(CCC(F)(F)F)Oc1c(F)cccc1Cc1ncc(F)cn1 [Example 1-17],90%,80%,–,–,–,–,–,–,–,–,–,–
O=S(=O)(CCCC(F)(F)F)Oc1c(Cl)cccc1Cc1ncc(Cl)cn1 [Example 1-18],90%,–,–,–,–,–,–,–,–,–,–,–
O=S(=O)(CCC(F)(F)F)Oc1c(Cl)cccc1Cc1ncc(Cl)cn1 [Example 1-20],90%,–,–,–,–,–,–,–,–,–,–,–
O=S(=O)(CCC(F)(F)F)Oc1c(Cl)cccc1Cc1ncc(F)cn1 [Example 1-21],90%,90%,–,–,–,–,–,–,–,–,–,–
Fc1ccc(Oc2ccccc2Cc2ccc(Cl)cn2)cc1 [Example 1-74],–,–,90%,100%,100%,90%,100%,–,–,–,–,Post-emergence efficacy against SETVI (SETVI: Setaria viridis [4]): 90%; Pre-emergence efficacy against SETVI in % (SETVI: Setaria viridis [7]): 100%; Pre-emergence efficacy against KCHSC (KCHSC: Kochia scoparia [9]): 90%
N#CC(c1ncc(F)cn1)c1ccccc1Cc1ccc(F)cc1 (centres unmarked) [Example 1-81],–,–,–,–,100%,90%,–,90%,90%,–,–,Post-emergence efficacy at 1280 g/ha against ECHCG in % [12]: 90%
Fc1ccc(Cc2ccccc2Cc2ncc(F)cn2)cc1 [Example 1-95],–,–,100%,100%,90%,100%,90%,100%,90%,100%,100%,Pre-emergence efficacy against VERPE in % (VERPE: Veronica persica [14]): 100%; Pre-emergence efficacy against ABUTH [16]: 100%; Post-emergence efficacy against SETVI (SETVI: Setaria viridis [4]): 90%; Pre-emergence efficacy against STEME in % (STEME: Stellaria media [17]): 100%; Pre-emergence efficacy against ECHCG [19]: 90%; Pre-emergence efficacy against KCHSC (KCHSC: Kochia scoparia [9]): 90%
Fc1ccc(Cc2ccccc2Cc2ccc(Cl)cn2)cc1 [Example 1-96],–,–,90%,100%,–,100%,100%,100%,100%,90%,90%,Pre-emergence efficacy against ABUTH [16]: 100%; Pre-emergence efficacy against ECHCG [19]: 90%; Pre-emergence efficacy against SETVI in % (SETVI: Setaria viridis [7]): 90%; Post-emergence efficacy at 1280 g/ha against ECHCG in % [12]: 90%
Fc1ccc(Oc2ccccc2Cc2ncccn2)cc1 [Example 1-98],–,–,90%,100%,90%,100%,100%,–,100%,90%,90%,Pre-emergence efficacy against VERPE in % (VERPE: Veronica persica [14]): 90%; Pre-emergence efficacy against ABUTH [16]: 100%; Pre-emergence efficacy against STEME in % (STEME: Stellaria media [17]): 90%; Pre-emergence efficacy against ECHCG [19]: 90%; Pre-emergence efficacy against SETVI in % (SETVI: Setaria viridis [7]): 90%
Fc1ccc(Cc2ccccc2Oc2ncc(Cl)cc2F)nc1 [Example 1-103],–,–,100%,100%,90%,100%,90%,100%,100%,90%,100%,Pre-emergence efficacy against VERPE in % (VERPE: Veronica persica [14]): 90%; Pre-emergence efficacy against ABUTH [16]: 100%; Post-emergence efficacy against SETVI (SETVI: Setaria viridis [4]): 90%; Pre-emergence efficacy against STEME in % (STEME: Stellaria media [17]): 100%; Pre-emergence efficacy against ECHCG [19]: 90%; Pre-emergence efficacy against SETVI in % (SETVI: Setaria viridis [7]): 100%
Fc1ccc(Sc2ccccc2Cc2ncc(Cl)cc2F)cc1 [Example 1-106],–,–,100%,90%,–,100%,–,90%,100%,90%,100%,Post-emergence efficacy at 1280 g/ha against ECHCG in % [12]: 90%
Fc1ccc(-c2ccccc2Cc2ncc(Cl)cc2F)cc1F [Example 1-127],–,–,100%,100%,90%,100%,90%,100%,100%,100%,100%,Pre-emergence efficacy against VERPE in % (VERPE: Veronica persica [14]): 90%; Post-emergence efficacy against SETVI (SETVI: Setaria viridis [4]): 90%; Pre-emergence efficacy against STEME in % (STEME: Stellaria media [17]): 90%; Pre-emergence efficacy against SETVI in % (SETVI: Setaria viridis [7]): 100%; Pre-emergence efficacy against KCHSC (KCHSC: Kochia scoparia [9]): 90%
[O-][S+](c1ccc(F)cc1)c1ccccc1Cc1ncc(Cl)cn1 (centres unmarked) [Example 1-142],80%,–,–,–,–,–,–,–,–,–,–,–
O=S(=O)(CCC(F)(F)F)c1ccccc1Cc1ncc(F)cn1 [Example 1-150],80%,–,–,–,–,–,–,–,–,–,–,–
Fc1cccc(Cc2ncc(Cl)cn2)c1Oc1ncc(Cl)cn1 [Example 1-151],80%,80%,–,–,–,–,–,–,–,–,–,–
Fc1cnc(Cc2cccc(F)c2Oc2ncc(F)cn2)nc1 [Example 1-153],90%,100%,–,–,–,–,–,–,–,–,–,–
Cc1nc(-c2ccccc2Cc2ncc(Cl)cn2)no1 [Example 1-159],80%,90%,–,–,–,–,–,–,–,–,–,–
FC(F)c1nc(-c2ccccc2Cc2ncc(Cl)cn2)no1 [Example 1-160],100%,100%,–,–,–,–,–,–,–,–,–,–
